Data published in article PMC9959553, “Promising Antifungal Molecules against Mucormycosis Agents Identified from Pandemic Response Box®: In Vitro and In Silico Analyses” (Journal of Fungi, 2023).
Where a SMILES comes first, the peptide text is derived from it.

The compounds below were run on R. oryzae UCP1295 (assay: Screening of the Pandemic Response Box library at 5 µM). Conditions: 48 h, Table S1, mean of the four values.
Assay type: cell-based, Rhizopus oryzae
Procedure: Rhizopus oryzae UCP is the most prevalent Mucorales species in human infections and was used as a reference strain to screen the Pandemic Response Box® library. Screening was performed according to Rollin-Pinheiro and colleagues. Each compound was diluted in RPMI 1640 medium (Sigma Chemical Co., St. Louis, MO, USA), supplemented with 2% glucose and buffered with 3-(N-morpholino) propanesulfonic acid (MOPS) (Sigma Chemical Co., St. Louis, MO, USA) (0.165 mol/L, pH 7.2, from here on referred to as ‘supplemented RPMI’) to reach 5 μM in 96-well microtiter plates. Posaconazole (5 μM) and supplemented RPMI containing 1% DMSO were used as controls (both from Sigma Chemical Co., St. Louis, MO, USA). Conidia (2 × 10^5/mL) were added and incubated for 48 h at 37 °C in a 5% CO2 atmosphere. […] An inhibition of at least 60% was defined as the cut-off to select the promising drugs with antifungal activity against the Rhizopus species.

Compound | % of growth inhibition, Mean [%]
O=c1ccc2ncc(=O)n3c2n1CC3CN1CCC(NCc2cc3c(cn2)OCCC3)CC1 (stereo not drawn) [MMV1578568] | -14.8
O=C1NC(=S)N/C1=C\c1cc(Br)cc(Br)c1O [MMV1578569] | -14.5
CCC(C)NCC(O)Cn1c2ccc(Cl)cc2c2cc(Cl)ccc21 (stereo not drawn) [MMV1578570] | -22.7
CC(C)(C)c1cc(C(=O)/C(C#N)=N/Nc2cccc(Cl)c2)no1 [MMV1578571] | -7.2
COc1cc(NC(=O)CN2C(=O)NC(c3ccccc3)(c3ccccc3)C2=O)cc(OC)c1 [MMV1578572] | -14.6
COc1ccc(SCC(=O)N2c3ccccc3Sc3ccccc32)cc1 [MMV1578573] | -3.7
CN(C)[C@@H]1C(=O)C(C(N)=O)=C(O)[C@@]2(O)C(=O)C3=C(O)c4c(O)c(NC(=O)CN5CCCC5)cc(F)c4C[C@H]3C[C@@H]12.Cl.Cl [MMV1578574] | -44.3
CC(=O)O[C@H]1C[C@@]2(C)[C@@H](C[C@@H](O)[C@H]3[C@@]4(C)CC[C@@H](O)[C@@H](C)[C@@H]4CC[C@@]32C)/C1=C(\CCC=C(C)C)C(=O)O [MMV1578575] | -21.4
O=C(Cc1ccccc1F)Nc1nc2ccccc2[nH]1 [MMV1578576] | -39.7
O=C(NC12CC3CC(CC(C3)C1)C2)c1cc2ccccc2[nH]1 [MMV1578577] | -4.8
O=C(Nc1nnc(-c2ccccc2)o1)c1ccc(F)cc1 [MMV1578578] | -32.9
COc1ccc(C)cc1NC(=O)c1ccc(S(=O)(=O)N2CCCCC2)cc1 [MMV1578579] | -3.3
CCCCOC(=O)Nc1cc2nc(C3CCCCC3)[nH]c2cc1N(CC)CC [MMV1578842] | -0.4
O=c1cc(NCCCN[C@@H]2CCOc3c(Br)cc(Br)cc32)[nH]c2ccsc12 [MMV1578884] | -1.3
O=c1nc(N2CCN(CC3CCCCC3)CC2)sc2c([N+](=O)[O-])cc(C(F)(F)F)cc12 [MMV1578885] | -14.2
c1ccc(Cn2c(-c3ccccn3)nc3ccccc32)cc1 [MMV1578886] | -11.3
Fc1ccc2c(/C=C/c3cccnc3)c[nH]c2c1 [MMV1578889] | -15.1
O=S(=O)(Nc1cccc2cccnc12)c1ccccc1 [MMV1578890] | 0.6
O=C(Cn1cnc2ccccc2c1=O)Nc1ccccc1 [MMV1578891] | -16.0
Cc1ccc(NC(=O)c2cc(Cl)ccc2O)cc1 [MMV1578897] | -1.2
CCOC(=O)N1CCN(c2ccc(Cl)cc2)CC1 [MMV1578898] | 0.3
CCCC(=O)OCCc1ccccc1 [MMV1578899] | -2.6
CC(Oc1ccc(Cl)cc1Cl)C(=O)NCc1ccc2c(c1)OCO2 (stereo not drawn) [MMV1578925] | -25.4
C=C(C)n1c(=O)n(Cc2ccccc2C)c2ccccc21 [MMV1579354] | -31.3

Compound | % of growth inhibition, Mean [%]
O=c1cc(OCc2ccccc2)ccn1Cc1ccccc1 [MMV1579775] | -7.1
NS(=O)(=O)c1ccc(NC(=O)NC(c2ccccc2)c2ccccc2)cc1 [MMV1579776] | -24.2
O=[N+]([O-])c1cn(Cc2nc(O)nc(O)c2Br)cn1 [MMV1579777] | -6.3
C[C@H](NC(CC(=O)c1ccccc1C(F)(F)F)C(=O)O)c1ccccc1 (stereo partly drawn) [MMV1579778] | -13.5
CC(=O)Nc1cc(NS(=O)(=O)c2ccc(Cl)cc2)cc2c(Cl)n[nH]c12 [MMV1579779] | -33.3
CC(C)n1cnc2c(NCc3ccccc3)nc(NCc3ccccc3)nc21 [MMV1579780] | -15.2
CC(Cc1ccccc1)C(=O)Nc1ccc(Cl)cc1C(=O)O (stereo not drawn) [MMV1579781] | -32.3
Cc1cccc(CC(=O)N[C@H]2CCOC2=O)c1 [MMV1579782] | -2.1
CCCCSc1nc(N)c2[nH]c(=O)c(=O)n(Cc3ccccc3)c2n1 [MMV1579783] | -34.5
O=C(Nc1ccccc1C(=O)O)c1cccc(Oc2ccccc2)c1 [MMV1579784] | -27.4
N#CCN1C(=O)COc2cc(F)c(N3C(=O)c4ccccc4C3=O)cc21 [MMV1579785] | -18.3
Cl.Cl.NCCCc1ccccc1C(=O)Nc1ncc([N+](=O)O)s1 [MMV1579786] | -16.7
O=C(CP(=O)(O)O)NCCc1cccc(Oc2ccccc2)c1 [MMV1579787] | -30.1
Cc1c(CN(C)C(=O)/C=C/c2cnc3c(c2)C(C)(C)C(=O)N3)oc2ccccc12 [MMV1579788] | -28.8
Cl.N=C(N)c1ccc(COc2ccc(Cl)cc2)cc1 [MMV1579844] | -3.3
O=C(NCc1cccc2ccccc12)c1cccs1 [MMV1579845] | -15.7
COc1cc(Cc2cc(N)nc(N)n2)cc(OC)c1OC [MMV1579846] | -11.6
Cc1ccn2c(C(=O)NCc3ccccc3)c(C)nc2c1 [MMV1579847] | -7.2
CC(N)C(=O)NC(CCCCN)C(=O)NC(CCCNC(=N)N)C(=O)NC(Cc1c[nH]cn1)C(=O)NC(Cc1c[nH]cn1)C(=O)NCC(=O)NC(Cc1ccc(O)cc1)C(=O)NC(CCCCN)C(=O)NC(CCCNC(=N)N)C(=O)NC(CCCCN)C(=O)NC(Cc1ccccc1)C(=O)NC(Cc1c[nH]cn1)C(N)=O (stereo not drawn) [MMV1579849] (H-AKRHHGYKRKFH-NH2; configuration not given here) | -25.8
N[C@@H]1CN(c2c(F)cc3c(=O)c(C(=O)O)cn([C@@H]4C[C@@H]4F)c3c2Cl)CC12CC2 [MMV1579850] | -4.9
O=C(O)c1ccccc1Sc1ncnc2sc3c(c12)CCC3 [MMV1579878] | -41.9
COc1cc(NCc2ccc3nc(N)nc(N)c3c2C)cc(OC)c1OC [MMV1580173] | 46.8
C[C@H](Cn1cnc2c(N)ncnc21)OCP(=O)(O)O [MMV1580478] | -19.5
CN(C)CC(=O)Nc1ccc2[nH]c(=O)c3ccccc3c2c1 [MMV1580480] | -3.9

Compound | % of growth inhibition, Mean [%]
CN1CCN(Cc2ccc(-c3cnc4[nH]cc(-c5ccc6[nH]ccc6c5)c4c3)cc2)CC1 [MMV1580482] | 1.5
CN(C)CCCOc1ccc(-c2ccc3ncc4c(c3c2)n(C2CCOCC2)c(=O)n4C)cn1 [MMV1580483] | -5.4
COc1ccccc1NC(=O)c1ccccc1Sc1ccc([N+](=O)[O-])cc1 [MMV1580484] | -7.7
COc1ccc(OCc2ccc(COc3c(Cl)cccc3Cl)cc2)c(Cl)c1 [MMV1580485] | -2.8
Cc1nc(N(C)C(=O)Cc2ccc(-c3ccccn3)cc2)sc1S(N)(=O)=O [MMV1580486] | -4.4
C/C(=N\NC(=O)C1CC1c1ccccc1)c1ccc(NC(=O)c2ccco2)cc1 (stereo not drawn) [MMV1580487] | 0.3
CN(C)CCCNC(=O)c1ccc(-c2cc(O)c3ncccc3c2)cc1 [MMV1580488] | 37.5
CC[N+]1(C/C2=C/CCCCCC2)CCC(NC(=O)C2c3cc(Cl)ccc3Oc3ccc(Cl)cc32)CC1.[I-] (stereo not drawn) [MMV1580489] | -4.5
c1cnc(NCc2ccc(CNc3ncccn3)cc2)nc1 [MMV1580490] | -10.6
CCOC(=O)/C=C/[C@H](C[C@@H]1CCNC1=O)NC(=O)[C@@H](CC(=O)[C@@H](NC(=O)c1cc(C)on1)C(C)C)Cc1ccc(F)cc1 [MMV1580491] | -18.6
CC(C)Oc1ccc(-c2nc(-c3cccc4c3CC[C@@H]4NCCO)no2)cc1C#N [MMV1580492] | -7.3
O=C(/C=C\n1cnc(-c2cc(C(F)(F)F)cc(C(F)(F)F)c2)n1)NNc1ccccn1 [MMV1580493] | 42.7
CCC[C@H](NC(=O)[C@@H]1[C@H]2CCC[C@H]2CN1C(=O)[C@@H](NC(=O)[C@@H](NC(=O)c1cnccn1)C1CCCCC1)C(C)(C)C)C(=O)C(=O)NC1CC1 [MMV1580494] | -15.1
Nc1cnn(C2OC(CO)C(O)C2O)c(=O)n1 (stereo not drawn) [MMV1580495] | -5.9
NC(=S)N/N=C/c1ncccc1N [MMV1580496] | -9.1
CC(C)(C)NC(=O)N[C@H](C(=O)N1C[C@H]2[C@@H]([C@H]1C(=O)NC(CC1CCC1)C(=O)C(N)=O)C2(C)C)C(C)(C)C (stereo partly drawn) [MMV1580497] | -8.5
O=C(O)C[C@H]1CC[C@H](c2ccc(-c3ccc(Nc4ccc(C(F)(F)F)nc4)cn3)cc2)CC1 [MMV1580498] | -26.7
COc1ccc(NS(=O)(=O)c2ccc(Cl)s2)cn1 [MMV1580499] | -3.0
Cn1c2ccccc2c(=O)c2c(O)cccc21 [MMV1580500] | -3.0
CC1(C)CC(NC(=O)C(=O)Nc2ccc(Cl)cc2)CC(C)(C)N1 [MMV1580501] | -11.4
c1cc(CN2CCCNCCNCCCNCC2)ccc1CN1CCCNCCNCCCNCC1 [MMV1580502] | 52.2
CC(=O)N1c2ccccc2NC2=C(C(=O)CC(C)(C)C2)C1c1ccc(OCc2ccccc2)cc1 (stereo not drawn) [MMV1580503] | -1.0
Oc1ccc(NCc2ccccc2OCc2ccccc2)cc1 [MMV1580504] | -5.9
O=C(Nc1ccc(N2CCN(C(=O)c3ccccc3)CC2)cc1)c1ccc2c(c1)OCO2 [MMV1580505] | -9.9
